The values below come from patent publication EP4737454A1, “GLP-1 RECEPTOR AGONIST, AND PREPARATION METHOD THEREFOR AND USE THEREOF” (Wayne Biotechnology Co., Ltd., priority 2023, dated 2025).

Sequence of Human GLP-1R (P43220 24-463): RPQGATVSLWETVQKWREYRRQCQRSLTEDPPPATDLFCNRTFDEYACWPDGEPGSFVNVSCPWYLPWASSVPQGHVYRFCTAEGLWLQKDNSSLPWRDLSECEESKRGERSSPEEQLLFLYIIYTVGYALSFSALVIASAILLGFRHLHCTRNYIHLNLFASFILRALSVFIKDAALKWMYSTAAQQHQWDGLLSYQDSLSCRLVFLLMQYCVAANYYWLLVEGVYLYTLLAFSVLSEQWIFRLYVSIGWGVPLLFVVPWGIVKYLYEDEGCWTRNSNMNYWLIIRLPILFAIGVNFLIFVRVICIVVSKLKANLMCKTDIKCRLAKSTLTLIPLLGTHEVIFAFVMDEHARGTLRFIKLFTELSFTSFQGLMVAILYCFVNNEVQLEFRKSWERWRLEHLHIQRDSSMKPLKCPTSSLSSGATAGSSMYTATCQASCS

The test deals with Human GLP-1R (Homo sapiens, UniProt P43220). As to the kind of experiment: cAMP level determination in human GLP-1R stably transfected HEK293T cells (HTRF cAMP kit). It is filed as cell-based. Conditions: 37°C 30 min. The protocol:
Human GLP-1R HEK293T stably transfected cells were digested with trypsin, terminated with DMEM total (without p/s), centrifuged and washed twice with 1X Stimulation buffer, then resuspended in 1X stimulation buffer and counted. The cells were then prepared as a 1 Million/mL cell suspension in stimulation buffer. Compound powder was first prepared as a 10 mM stock solution in DMSO, then diluted to 2 mM with DMSO, and further prepared as 2X compound in 1X stimulation buffer (Cisbio kit buffer with freshly added IBMX at a final concentration of 0.5 mM). The top dose final concentration was 2000 nM, with a final DMSO concentration of 0.2%, diluted in a 1:3 gradient for 11 gradients.
According to the layout, 5 µl of compound was added to each well; Min wells contained 100 nM GLP-1, and Max wells contained 0.2% DMSO in 1X stimulation buffer. 5 µl of cell suspension was added to each well, centrifuged at 300 rpm at room temperature for 1 min, then incubated at 37°C for 30 min. 2X cAMP standards were prepared in 1X Stimulation buffer, with a top final concentration of 2.8 µM, diluted in a 1:3 gradient for 12 doses. According to the layout, 10 µl was added to each well. Finally, d2 and antibody were diluted 20-fold in 1X Detection buffer (Cisbio kit buffer), and 5 µl of each was added to each well according to the layout. After centrifugation at 300 rpm at room temperature for 1 min, the plate was incubated at room temperature for 2 hr.
Stimulation% was calculated based on Min and Max readings (665nm/615nm ratio) using the formula: 100*(ratio Max well - ratio test well)/(ratio Max well - ratio Min well). The cAMP concentration in each test well was derived from the cAMP standard curve, and the data was analyzed using GraphPad Prism 9 to plot four-parameter fit curves and calculate EC50 values using the formula: Y=Bottom + (Top-Bottom)/(1+10^((LogEC50-X)*HillSlope)). Table 1: cAMP Level Determination in Human GLP-1R Stably Transfected HEK293T Cells
Background: cAMP levels reflect the balance of adenylyl cyclase and phosphodiesterase activity.
In general, EC50 refers to the concentration at which the effect is half-maximal. High values mean lower potency in that assay, low ones higher potency in that assay. In turn, `C[C@H]1c2c(nn(-c3ccc(F)c(C4CC4)c3)c2-n2ccn(-c3ccc4c(cnn4C)c3F)c2=O)CCN1C(=O)c1cc2cc([C@@H]3CCOC(C)(C)C3)ccc2n1[C@@]1(c2nc(=O)o[nH]2)C[C@@H]1C` [Compound 1a] returned a half-maximal effective concentration (EC50) of 0.0355 µM.

Turning to `C[C@H]1c2c(nn(-c3ccc(F)c(C4CC4)c3)c2-n2ccn(-c3ccc4c(cnn4C)c3F)c2=O)CCN1C(=O)c1cc2cc([C@H]3CCOC(C)(C)C3)ccc2n1[C@@]1(c2nc(=O)o[nH]2)C[C@@H]1C` [Compound 1b], a half-maximal response (EC50) required 0.0175 µM.

For `C[C@H]1c2c(nn(-c3ccc(F)c(C4CC4(F)F)c3)c2-n2ccn(-c3ccc4c(cnn4C)c3F)c2=O)CCN1C(=O)c1cc2cc(C3CCOC(C)(C)C3)ccc2n1[C@@]1(c2nc(=O)o[nH]2)C[C@@H]1C` (some centres unmarked) [Compound 2], the 50% effective concentration (EC50) was determined as 0.0565 µM.

Turning to `C[C@H]1c2c(nn(-c3ccc(F)c(N4CCCC4)c3)c2-n2ccn(-c3ccc4c(cnn4C)c3F)c2=O)CCN1C(=O)c1cc2cc(C3CCOC(C)(C)C3)ccc2n1[C@@]1(c2nc(=O)o[nH]2)C[C@@H]1C` (some centres unmarked) [Compound 3], the midpoint of the response, the EC50, lay at 0.0265 µM.

With `C[C@H]1c2c(nn(-c3ccc(F)c(OC(F)(F)F)c3)c2-n2ccn(-c3ccc4c(cnn4C)c3F)c2=O)CCN1C(=O)c1cc2cc(C3CCOC(C)(C)C3)ccc2n1[C@@]1(c2nc(=O)o[nH]2)C[C@@H]1C` (some centres unmarked) [Compound 4], it took 0.0343 µM to reach a half-maximal effect (EC50).

The molecule `Cc1cc(-n2nc3c(c2-n2ccn(-c4ccc(C(=O)N(C)C5CC5)c(C(F)(F)F)c4)c2=O)[C@H](C)N(C(=O)c2cc4cc([C@H]5CCOC(C)(C)C5)ccc4n2[C@@]2(c4nc(=O)o[nH]4)C[C@@H]2C)CC3)cc(C)c1F` [Compound 6] had a concentration for a half-maximal effect (EC50) of 0.00516 µM.

`CCc1cc(-n2ccn(-c3c4c(nn3-c3cc(C)c(F)c(C)c3)CCN(C(=O)c3cc5cc([C@H]6CCOC(C)(C)C6)ccc5n3[C@@]3(c5nc(=O)o[nH]5)C[C@@H]3C)[C@H]4C)c2=O)ccc1C(=O)N(C)C1CC1` [Compound 8] showed an EC50 of 0.00475 µM.

As for `Cc1cc(-n2nc3c(c2-n2ccn(-c4ccc(C(=O)N(C)C5CC5)c(C#N)c4)c2=O)[C@H](C)N(C(=O)c2cc4cc([C@H]5CCOC(C)(C)C5)ccc4n2[C@@]2(c4nc(=O)o[nH]4)C[C@@H]2C)CC3)cc(C)c1F` [Compound 9], the EC50 turned out to be 0.00485 µM.

Molecule `Cc1cc(-n2nc3c(c2-n2ccn(-c4ccc(C(=O)N(C)C5CC5)cc4)c2=O)[C@H](C)N(C(=O)c2cc4cc([C@H]5CCOC(C)(C)C5)ccc4n2[C@@]2(c4nc(=O)o[nH]4)C[C@@H]2C)CC3)cc(C)c1F` [Compound 10] had a concentration for a half-maximal effect (EC50) of 0.00855 µM.

On to `Cc1cc(-n2nc3c(c2-n2ccn(-c4ccc(C(=O)N(C)C5CC5)c(OC(F)(F)F)c4)c2=O)[C@H](C)N(C(=O)c2cc4cc([C@H]5CCOC(C)(C)C5)ccc4n2[C@@]2(c4nc(=O)o[nH]4)C[C@@H]2C)CC3)cc(C)c1F` [Compound 12], for which the EC50 was found to be 0.00958 µM.

Molecule `Cc1cc(-n2nc3c(c2-n2ccn(-c4ccc(C(=O)N(C)C5CC5)c(C(F)(F)F)c4F)c2=O)[C@H](C)N(C(=O)c2cc4cc([C@H]5CCOC(C)(C)C5)ccc4n2[C@@]2(c4nc(=O)o[nH]4)C[C@@H]2C)CC3)cc(C)c1F` [Compound 14] came in with an EC50 of 0.00561 µM.

Regarding `Cc1cc(-n2nc3c(c2-n2ccn(-c4ccc(C(=O)N(C)C5(C)CC5)c(C(F)(F)F)c4)c2=O)[C@H](C)N(C(=O)c2cc4cc([C@H]5CCOC(C)(C)C5)ccc4n2[C@@]2(c4nc(=O)o[nH]4)C[C@@H]2C)CC3)cc(C)c1F` [Compound 15], the EC50 worked out at 0.00727 µM.

Regarding `Cc1cc(-n2nc3c(c2-n2ccn(-c4ccc(C(=O)N(C)C5(C(F)(F)F)CC5)cc4)c2=O)[C@H](C)N(C(=O)c2cc4cc(C5CCOC(C)(C)C5)ccc4n2[C@@]2(c4nc(=O)o[nH]4)C[C@@H]2C)CC3)cc(C)c1F` (some centres unmarked) [Compound 16], the midpoint of the response, the EC50, lay at 0.01 µM.

On to `Cc1cc(-n2nc3c(c2-n2ccn(-c4ccc(C(=O)N(C)C5CC5)c(C)c4F)c2=O)[C@H](C)N(C(=O)c2cc4cc([C@H]5CCOC(C)(C)C5)ccc4n2[C@@]2(c4nc(=O)o[nH]4)C[C@@H]2C)CC3)cc(C)c1F` [Compound 17], for which the half-maximal effective concentration (EC50) was 0.00897 µM.

Molecule `Cc1cc(-n2nc3c(c2-n2ccn(-c4cc(F)c(C(=O)N(C)C5CC5)c(Cl)c4F)c2=O)[C@H](C)N(C(=O)c2cc4cc(C5CCOC(C)(C)C5)ccc4n2[C@@]2(c4nc(=O)o[nH]4)C[C@@H]2C)CC3)cc(C)c1F` (some centres unmarked) [Compound 19] displayed an EC50 of 0.0162 µM.

Molecule `Cc1cc(-n2nc3c(c2-n2ccn(-c4ccc(C(=O)N(C)C5CCC5)cc4)c2=O)[C@H](C)N(C(=O)c2cc4cc(C5CCOC(C)(C)C5)ccc4n2[C@@]2(c4nc(=O)o[nH]4)C[C@@H]2C)CC3)cc(C)c1F` (some centres unmarked) [Compound 21] came in with an EC50 of 0.0144 µM.

Molecule `Cc1cc(-n2nc3c(c2-n2ccn(-c4ccc(C(=O)N5CCCC5)cc4)c2=O)[C@H](C)N(C(=O)c2cc4cc(C5CCOC(C)(C)C5)ccc4n2[C@@]2(c4nc(=O)o[nH]4)C[C@@H]2C)CC3)cc(C)c1F` (some centres unmarked) [Compound 22] displayed a concentration giving a half-maximal response (EC50) of 0.0507 µM.

`Cc1cc(-n2nc3c(c2-n2ccn(-c4ccc(C(=O)N(C)C5(C#N)CC5)c(F)c4)c2=O)[C@H](C)N(C(=O)c2cc4cc(C5CCOC(C)(C)C5)ccc4n2[C@@]2(c4nc(=O)o[nH]4)C[C@@H]2C)CC3)cc(C)c1F` (some centres unmarked) [Compound 23]: the response was half-maximal at 0.0138 µM (EC50).

Molecule `Cc1cc(-n2nc3c(c2-n2ccn(-c4ccc(C(=O)N(C)C5CC5)nc4)c2=O)[C@H](C)N(C(=O)c2cc4cc(C5CCOC(C)(C)C5)ccc4n2[C@@]2(c4nc(=O)o[nH]4)C[C@@H]2C)CC3)cc(C)c1F` (some centres unmarked) [Compound 24] registered an EC50 of 0.0542 µM.

In the case of `Cc1cc(-n2nc3c(c2-n2ccn(-c4ccc(C(=O)N(C(C)C)C5CC5)cc4)c2=O)[C@H](C)N(C(=O)c2cc4cc(C5CCOC(C)(C)C5)ccc4n2[C@@]2(c4nc(=O)o[nH]4)C[C@@H]2C)CC3)cc(C)c1F` (some centres unmarked) [Compound 25], the 50% effective concentration (EC50) turned out to be 0.0118 µM.

Take `Cc1cc(-n2nc3c(c2-n2ccn(-c4cc(F)c(C(=O)N(C)C5CC5)cc4F)c2=O)C(C)N(C(=O)c2cc4cc(C5CCOC(C)(C)C5)ccc4n2C2(c4nc(=O)o[nH]4)CC2C)CC3)cc(C)c1F` (centres unmarked) [Compound 26]: the midpoint of the response, the EC50, lay at 0.0115 µM.

As to `Cc1cc(-n2nc3c(c2-n2ccn(-c4ccc(C(=O)N(C)C5CC5)cn4)c2=O)[C@H](C)N(C(=O)c2cc4cc(C5CCOC(C)(C)C5)ccc4n2[C@@]2(c4nc(=O)o[nH]4)C[C@@H]2C)CC3)cc(C)c1F` (some centres unmarked) [Compound 29], a half-maximal effect (EC50) was put at 0.102 µM.

For the molecule `Cc1cc(-n2nc3c(c2-n2ccn(-c4ccc(C(=O)N(C)C5CC5)nn4)c2=O)[C@H](C)N(C(=O)c2cc4cc(C5CCOC(C)(C)C5)ccc4n2[C@@]2(c4nc(=O)o[nH]4)C[C@@H]2C)CC3)cc(C)c1F` (some centres unmarked) [Compound 30], the response was half-maximal at 0.206 µM (EC50).

Take `Cc1cc(-n2nc3c(c2-n2ccn(-c4ccc(C(=O)N(C)C5CC5)c(OC(F)F)c4)c2=O)[C@H](C)N(C(=O)c2cc4cc(C5CCOC(C)(C)C5)ccc4n2[C@@]2(c4nc(=O)o[nH]4)C[C@@H]2C)CC3)cc(C)c1F` (some centres unmarked) [Compound 31]: the EC50 worked out at 0.0151 µM.

As for `Cc1cc(-n2nc3c(c2-n2ccn(-c4cnc(C(=O)N(C)C5CC5)nc4)c2=O)[C@H](C)N(C(=O)c2cc4cc(C5CCOC(C)(C)C5)ccc4n2[C@@]2(c4nc(=O)o[nH]4)C[C@@H]2C)CC3)cc(C)c1F` (some centres unmarked) [Compound 32], it took 0.0797 µM to reach a half-maximal effect (EC50).

Turning to `Cc1cc(-n2nc3c(c2-n2ccn(-c4ccc(C(=O)N(C)C5(C)CC5)c(OC(F)(F)F)c4)c2=O)[C@H](C)N(C(=O)c2cc4cc(C5CCOC(C)(C)C5)ccc4n2[C@@]2(c4nc(=O)o[nH]4)C[C@@H]2C)CC3)cc(C)c1F` (some centres unmarked) [Compound 34], the half-maximal effective concentration (EC50) turned out to be 0.00744 µM.

`Cc1cc(-n2ccn(-c3c4c(nn3-c3cc(C)c(F)c(C)c3)CCN(C(=O)c3cc5cc(C6CCOC(C)(C)C6)ccc5n3[C@@]3(c5nc(=O)o[nH]5)C[C@@H]3C)[C@H]4C)c2=O)ccc1C(=O)N(C)C1(C)CC1` (some centres unmarked) [Compound 35] registered an EC50 of 0.02 µM.

In turn, `Cc1cc(-n2nc3c(c2-n2ccn(-c4ccc(C(=O)N(C)C5CC5)cc4C#N)c2=O)[C@H](C)N(C(=O)c2cc4cc(C5CCOC(C)(C)C5)ccc4n2[C@@]2(c4nc(=O)o[nH]4)C[C@@H]2C)CC3)cc(C)c1F` (some centres unmarked) [Compound 36] gave a concentration giving a half-maximal response (EC50) of 0.0678 µM.

With `Cc1cc(-n2nc3c(c2-n2ccn(-c4ccc(C(F)(F)F)c(C(=O)N(C)C5CC5)c4)c2=O)[C@H](C)N(C(=O)c2cc4cc(C5CCOC(C)(C)C5)ccc4n2[C@@]2(c4nc(=O)o[nH]4)C[C@@H]2C)CC3)cc(C)c1F` (some centres unmarked) [Compound 37], the EC50 worked out at 0.0188 µM.

The molecule `Cc1cc(-n2nc3c(c2-n2ccn(-c4ccc(OC(F)(F)F)c(C(=O)N(C)C5CC5)c4)c2=O)[C@H](C)N(C(=O)c2cc4cc(C5CCOC(C)(C)C5)ccc4n2[C@@]2(c4nc(=O)o[nH]4)C[C@@H]2C)CC3)cc(C)c1F` (some centres unmarked) [Compound 38] came in with an EC50 of 0.0181 µM.

`Cc1cc(-n2nc3c(c2-n2ccn(-c4ccccc4C(=O)N(C)C4CC4)c2=O)[C@H](C)N(C(=O)c2cc4cc(C5CCOC(C)(C)C5)ccc4n2[C@@]2(c4nc(=O)o[nH]4)C[C@@H]2C)CC3)cc(C)c1F` (some centres unmarked) [Compound 39] came in with a concentration giving a half-maximal response (EC50) of 0.0113 µM.

`Cc1cc(-n2nc3c(c2-n2ccn(-c4c(F)cccc4C(=O)N(C)C4CC4)c2=O)[C@H](C)N(C(=O)c2cc4cc(C5CCOC(C)(C)C5)ccc4n2[C@@]2(c4nc(=O)o[nH]4)C[C@@H]2C)CC3)cc(C)c1F` (some centres unmarked) [Compound 40] came in with an EC50 of 0.155 µM.
